The values that follow come from patent US10155775B2, “Substituted amino six-membered saturated heteroalicycles as long-acting DPP-IV inhibitors” (Centaurus Biopharma Co., Ltd., priority 2015, dated 2018).

In data set [1] the target is serum DPP-IV (Mus musculus (Mouse), UniProt P28843). As to the kind of experiment: in vivo. Particulars: for response vs control in vivo at 30 mg/kg: po, read-out: Specific activity of DPP-IV.
A short description of data set [2]: Liver microsome metabolic stability (rat). The class given is in vitro ADME. Particulars: rat liver microsomes, read-out: Half Life t1/2, liver microsome metabolic stability (converted). The method, then: (§1) 8 μL human liver microsomes (20 mg/mL), 20 μL NADPH and 368 μL of 0.1 M phosphate buffer were mixed, and then pre-incubated at 37° C. for 5 minutes. 4 μL working solutions (test compounds or positive control) were added, respectively. When pre-incubated at 37° C., 50 μL incubation solutions were taken out at 0, 10, 20, 30, 45 and 60 minute, and thereto was added a 150 μL solution of internal standard ([…]) in acetonitrile. 4 μL rat liver microsomes (20 mg/mL), 10 μL NADPH and 184 μL of 0.1 M phosphate buffer were mixed, and then pre-incubated at 37° C. for 5 minutes. 2 μL working solutions (test compounds or positive control) were added, respectively. When pre-incubated at 37° C., 20 μL incubation solutions were taken out at 0, 10, 20, 30, 45 and 60 minute, and thereto was added a 180 μL solution of internal standard (0.25 M warfarin) in acetonitrile. All samples were vortexed and centrifuged at 4000 rpm for 15 min, and 150 μL supernatants were added to a 96-well plate, and then 5 μL supernatants were detected in LC/MS/MS system. Chromatographic column for analysis was C18 1.7 μm 2.1×50 mm (Waters). Triple quadrupole mass spectrometry (API4000, AB Company) was used in detection. A ratio of the peak area of CT-1225 to that of the internal standard was detected in positive ion mode. […]

Data set [3] in a line: Liver microsome metabolic stability (human). The class given is in vitro ADME. To be noted: human liver microsomes, read-out: Half Life t1/2, liver microsome metabolic stability (converted). Here is the method: as §1
Background: Liver microsomes are a subcellular fraction often used to study metabolism.

In data set [4] the target is CYP3A4 (Homo sapiens (Human), UniProt P08684). The data set can be described thus: IC50 of inhibiting CYP enzyme system, human liver microsomes. The data set is classed as in vitro ADME. Here is the method: (§2) IC50 values of compounds of the present application in inhibiting CYP enzyme system were determined by using the following method.
(§3) Human liver microsomes frozen at −80° C. in refrigerator were placed on ice for thawing, of which 100 μL was placed in a constant temperature oscillator for incubation (1 hour) at 60° C. and 100 rpm when immediately thawing, and the rest was frozen immediately in refrigerator at −80° C. After one hour, 100 μL inactivated liver microsomes were taken out, and thereto was added 400 μL phosphate buffer, and uniformly mixed to form a 4 mg/mL solution of inactivated liver microsomes. Meanwhile, human liver microsomes frozen at −80° C. in refrigerator were placed on ice for thawing, of which 100 μL was taken out when immediately thawing, and thereto was added 400 μL phosphate buffer, and uniformly mixed to form a 4 mg/mL solution of liver microsomes. The incubation mixtures for a positive control, test compounds and a negative control were prepared according to Table 3 below:
(§4) The above incubation mixtures were incubated for 5 minutes in a constant temperature oscillator at 37° C. and 100 rpm.
(§5) To 2.5 μL working solution of the test compounds or positive control (the negative control was added to the working solution of the test compounds) were added 91.5 μL the incubation mixtures and 6 μL NADPH solution, and then the reaction was initiated via vortex. The resulting solutions were incubated in a constant temperature oscillator at 37° C. and 100 rpm, and the incubation time was shown in Table 4 below:
(§6) Samples from the terminated reaction were centrifuged at 12000 rpm for 10 minutes, and supernatants were taken out for analysis.
(§7) Analyst 1.4.2 or equivalent software was used for data processing. Integrals were detected to ensure that all peaks were properly integrated, and if necessary, adjust integral parameters.
(§8) The quantification of an analyte was defined as a ratio of a peak area of the analyte to that of the internal standard.

Data set [5] addresses CYP2C9 (Homo sapiens (Human), UniProt P11712). The description is as above. The data set is classed as in vitro ADME. To be noted: read-out: IC50 in inhibiting CYP Enzyme System 2C9. The method, then:
as §2, §3, §4, §5, §6, §7, §8

The target of data set [6] is CYP2C8 (Homo sapiens (Human), UniProt P10632). The description is as above. The data set is classed as in vitro ADME. To be noted: read-out: IC50 in inhibiting CYP Enzyme System 2C8. Here is the method:
as §2, §3, §4, §5, §6, §7, §8

The target in data set [7] is CYP1A2 (Homo sapiens (Human), UniProt P05177). Described as above. Particulars: read-out: IC50 in inhibiting CYP Enzyme System 1A2. The class given is in vitro ADME. Here is the method:
as §2, §3, §4, §5, §6, §7, §8

Data set [8] has as its target CYP2B6 (Homo sapiens (Human), UniProt P20813). The data set is described as above. To be noted: read-out: IC50 in inhibiting CYP Enzyme System 2B6. The class given is in vitro ADME. The method, then: as §2, §3, §4, §5, §6, §7, §8
For data set [9], the target named is CYP2C19 (Homo sapiens (Human), UniProt P33261). The data set is described as above. The data set is classed as in vitro ADME. To be noted: read-out: IC50 in inhibiting CYP Enzyme System 2C19. The method, then: as §2, §3, §4, §5, §6, §7, §8
The nature of data set [10]: Measuring pharmacokinetics parameters in rats after intragastric administration. The data set is classed as in vivo. To be noted: male, plasma; rat, PO, 5 mg/kg, 20% sulfobutyl-β-cyclodextrin. The method, then: The pharmacokinetic parameters of compounds of the present application were determined by using the following method.
Healthy male adult rats (7-9 weeks old) were used in this study. Each group of animals (3 male rats) was intragastrically administered once at a single dose of 5 mg/kg. The animals in the intragastric administration group were fasted overnight before this study. The fasting time period was from 10 hours before administration to 4 hours after administration.
Blood samples were taken at 0.25, 0.5, 1, 2, 4, 6, 8 and 24 h after administration. The animals were anesthetized with isoflurane using an animal anesthesia machine, and then 0.3 mL whole blood samples were taken from the fundus venous plexus. The blood samples were placed in heparin anticoagulant tubes, and centrifuged for 5 min at 4° C. and 4000 rpm. The resulting plasmas were transferred to centrifuge tubes, and stored at −80° C. until analysis.
Verified LC-MS/MS method was used to analyze the plasma samples. Plasma concentration-time data of animals were analyzed using WinNonlin (Professional Edition, version 6.3; Pharsight Company) software. The non-compartmental model was introduced for concentration analysis.

Data set [11] deals with CYP2D6 (Homo sapiens (Human), UniProt P10635). The data set can be described thus: biochemical. The data set is classed as in vitro ADME. Particulars: human liver microsomes; read-out: IC50 in inhibiting CYP Enzyme System 2D6. The method, then: as §2
as §3, with “below: […]” for “below:”
as §7, §8

Where two headings read alike, the source gives them in different places. Where only a bound is given, the exact number is not on record here.

serum DPP-IV, sequence (P28843 37-760): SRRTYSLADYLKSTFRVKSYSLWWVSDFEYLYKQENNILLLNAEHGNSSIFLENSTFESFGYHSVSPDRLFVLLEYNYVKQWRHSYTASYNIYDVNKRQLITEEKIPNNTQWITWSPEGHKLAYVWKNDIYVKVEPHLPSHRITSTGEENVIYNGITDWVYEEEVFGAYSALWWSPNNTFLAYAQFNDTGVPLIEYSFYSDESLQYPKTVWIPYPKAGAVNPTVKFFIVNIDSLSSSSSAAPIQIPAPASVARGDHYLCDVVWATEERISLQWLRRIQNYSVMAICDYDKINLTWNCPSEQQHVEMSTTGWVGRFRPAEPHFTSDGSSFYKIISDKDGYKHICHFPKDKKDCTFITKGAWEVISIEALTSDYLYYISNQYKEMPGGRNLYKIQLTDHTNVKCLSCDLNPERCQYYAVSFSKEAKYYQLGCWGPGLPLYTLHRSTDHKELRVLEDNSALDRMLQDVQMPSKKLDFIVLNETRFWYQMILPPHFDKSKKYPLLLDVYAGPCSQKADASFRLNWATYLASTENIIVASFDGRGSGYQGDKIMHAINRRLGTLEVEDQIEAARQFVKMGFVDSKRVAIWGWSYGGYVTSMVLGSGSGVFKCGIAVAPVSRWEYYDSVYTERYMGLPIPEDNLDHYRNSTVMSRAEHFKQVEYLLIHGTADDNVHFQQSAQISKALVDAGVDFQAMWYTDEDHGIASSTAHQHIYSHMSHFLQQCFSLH
CYP3A4, sequence (P08684 whole entry): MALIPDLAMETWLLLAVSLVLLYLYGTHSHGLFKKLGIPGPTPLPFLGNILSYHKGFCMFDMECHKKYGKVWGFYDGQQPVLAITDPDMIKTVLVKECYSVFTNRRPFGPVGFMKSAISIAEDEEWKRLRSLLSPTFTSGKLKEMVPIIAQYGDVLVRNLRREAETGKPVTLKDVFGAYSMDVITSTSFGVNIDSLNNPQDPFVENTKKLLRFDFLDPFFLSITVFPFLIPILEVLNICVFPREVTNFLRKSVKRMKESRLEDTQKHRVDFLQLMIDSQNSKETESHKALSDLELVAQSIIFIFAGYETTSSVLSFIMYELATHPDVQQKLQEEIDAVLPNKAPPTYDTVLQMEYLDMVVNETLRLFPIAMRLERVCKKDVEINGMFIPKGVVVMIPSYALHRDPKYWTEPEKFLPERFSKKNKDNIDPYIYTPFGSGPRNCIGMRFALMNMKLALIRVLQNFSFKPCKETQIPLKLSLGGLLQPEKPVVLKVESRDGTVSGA
CYP2C19, sequence (P33261 whole entry): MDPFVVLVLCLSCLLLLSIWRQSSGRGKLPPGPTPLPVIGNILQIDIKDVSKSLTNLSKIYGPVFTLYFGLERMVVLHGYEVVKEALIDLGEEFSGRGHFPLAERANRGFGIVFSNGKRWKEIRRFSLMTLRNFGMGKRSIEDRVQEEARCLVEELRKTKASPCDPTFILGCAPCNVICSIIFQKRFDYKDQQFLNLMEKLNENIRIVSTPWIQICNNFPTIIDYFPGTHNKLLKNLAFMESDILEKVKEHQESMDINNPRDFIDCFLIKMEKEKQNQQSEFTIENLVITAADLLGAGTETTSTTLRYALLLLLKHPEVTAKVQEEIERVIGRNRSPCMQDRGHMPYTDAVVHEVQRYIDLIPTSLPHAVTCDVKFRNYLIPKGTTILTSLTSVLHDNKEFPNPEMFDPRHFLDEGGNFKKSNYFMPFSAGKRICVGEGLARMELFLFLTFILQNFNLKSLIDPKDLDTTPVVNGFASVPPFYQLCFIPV
CYP2B6, sequence (P20813 whole entry): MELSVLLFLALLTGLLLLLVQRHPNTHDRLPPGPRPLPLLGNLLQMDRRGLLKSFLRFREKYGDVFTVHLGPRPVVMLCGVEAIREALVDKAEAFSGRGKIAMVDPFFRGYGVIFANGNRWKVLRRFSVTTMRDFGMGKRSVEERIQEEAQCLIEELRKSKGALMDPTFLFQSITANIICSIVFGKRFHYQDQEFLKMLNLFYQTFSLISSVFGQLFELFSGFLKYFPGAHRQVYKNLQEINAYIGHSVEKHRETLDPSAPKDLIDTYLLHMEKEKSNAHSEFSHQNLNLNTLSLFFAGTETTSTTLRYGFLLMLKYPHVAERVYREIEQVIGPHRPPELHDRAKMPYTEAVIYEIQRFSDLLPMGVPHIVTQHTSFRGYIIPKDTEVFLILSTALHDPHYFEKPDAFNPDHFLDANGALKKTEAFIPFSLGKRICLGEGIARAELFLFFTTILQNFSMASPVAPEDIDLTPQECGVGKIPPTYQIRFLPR
CYP2C8, sequence (P10632 whole entry): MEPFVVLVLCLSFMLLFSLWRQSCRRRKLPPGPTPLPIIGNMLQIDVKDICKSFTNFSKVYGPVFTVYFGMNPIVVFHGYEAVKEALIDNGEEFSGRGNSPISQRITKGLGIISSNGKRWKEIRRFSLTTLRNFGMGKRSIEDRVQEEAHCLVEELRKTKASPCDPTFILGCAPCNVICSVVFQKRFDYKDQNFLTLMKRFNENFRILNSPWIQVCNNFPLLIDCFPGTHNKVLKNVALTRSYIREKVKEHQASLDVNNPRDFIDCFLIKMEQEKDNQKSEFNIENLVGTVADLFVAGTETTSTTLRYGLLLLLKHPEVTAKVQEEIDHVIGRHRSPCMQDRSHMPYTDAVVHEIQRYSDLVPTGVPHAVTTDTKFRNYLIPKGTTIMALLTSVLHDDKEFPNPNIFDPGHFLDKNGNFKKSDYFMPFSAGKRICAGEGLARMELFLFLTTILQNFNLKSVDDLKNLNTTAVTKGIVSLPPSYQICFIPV
CYP2C9, sequence (P11712 whole entry): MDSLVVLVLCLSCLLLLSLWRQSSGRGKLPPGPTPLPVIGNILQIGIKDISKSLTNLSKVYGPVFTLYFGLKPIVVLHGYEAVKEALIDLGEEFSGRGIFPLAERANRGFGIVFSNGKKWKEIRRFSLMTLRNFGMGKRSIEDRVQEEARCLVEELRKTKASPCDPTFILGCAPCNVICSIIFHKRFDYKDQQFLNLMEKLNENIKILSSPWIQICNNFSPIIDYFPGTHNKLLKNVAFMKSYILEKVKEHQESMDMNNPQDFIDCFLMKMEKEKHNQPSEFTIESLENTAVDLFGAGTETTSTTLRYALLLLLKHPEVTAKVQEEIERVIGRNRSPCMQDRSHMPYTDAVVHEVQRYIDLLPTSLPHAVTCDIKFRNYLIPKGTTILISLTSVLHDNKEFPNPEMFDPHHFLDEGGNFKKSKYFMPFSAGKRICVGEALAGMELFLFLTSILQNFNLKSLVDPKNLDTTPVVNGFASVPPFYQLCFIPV
CYP1A2, sequence (P05177 whole entry): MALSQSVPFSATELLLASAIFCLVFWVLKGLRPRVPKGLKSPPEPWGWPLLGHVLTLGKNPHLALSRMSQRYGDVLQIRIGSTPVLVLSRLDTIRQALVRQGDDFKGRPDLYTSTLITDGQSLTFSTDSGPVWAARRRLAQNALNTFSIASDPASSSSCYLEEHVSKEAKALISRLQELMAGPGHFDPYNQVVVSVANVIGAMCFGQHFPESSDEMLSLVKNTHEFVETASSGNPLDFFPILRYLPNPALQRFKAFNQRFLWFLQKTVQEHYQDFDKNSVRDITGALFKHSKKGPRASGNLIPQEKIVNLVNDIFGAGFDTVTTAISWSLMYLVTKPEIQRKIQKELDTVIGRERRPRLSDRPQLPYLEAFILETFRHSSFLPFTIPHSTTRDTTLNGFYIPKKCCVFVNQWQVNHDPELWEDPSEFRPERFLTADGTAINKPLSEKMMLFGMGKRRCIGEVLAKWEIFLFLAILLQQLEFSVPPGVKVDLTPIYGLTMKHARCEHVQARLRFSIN
CYP2D6, sequence (P10635 whole entry): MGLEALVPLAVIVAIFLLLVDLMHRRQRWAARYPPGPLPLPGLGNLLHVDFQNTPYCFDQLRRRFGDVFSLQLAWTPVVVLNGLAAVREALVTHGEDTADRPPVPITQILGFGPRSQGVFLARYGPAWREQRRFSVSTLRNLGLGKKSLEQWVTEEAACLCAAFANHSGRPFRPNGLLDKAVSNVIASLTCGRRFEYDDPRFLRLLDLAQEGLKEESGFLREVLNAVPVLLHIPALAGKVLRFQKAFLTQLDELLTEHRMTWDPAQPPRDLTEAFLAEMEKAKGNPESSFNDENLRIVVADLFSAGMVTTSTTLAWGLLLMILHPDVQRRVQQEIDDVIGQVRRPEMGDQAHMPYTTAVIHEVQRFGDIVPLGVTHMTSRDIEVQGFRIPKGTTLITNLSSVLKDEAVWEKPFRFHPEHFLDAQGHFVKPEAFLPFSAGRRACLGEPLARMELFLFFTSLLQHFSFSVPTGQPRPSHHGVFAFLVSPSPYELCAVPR

For the molecule `CS(=O)(=O)n1cc2c(n1)CN([C@H]1CO[C@H](c3cc(F)ccc3F)[C@@H](N)C1)C2` [Omarigliptin], the response vs control in vivo at 30 mg/kg in [1] (2 h) was found to be 8.4%; in data set [1] (4 h) it was 7.4%; in [1] (10 h), 9.1%; in data set [1] (24 h) it was 15.6%; in data set [1] (34 h) it was 20.2%; in data set [1] (48 h) it was 45.5%. For the same molecule, the response vs control in vivo at 30 mg/kg was 41.2% in [1] (58 h), 58.4% in data set [1] (72 h) and 68% in [1] (96 h). Also, the inhibition at 30 mg/kg in [1] (read-out: inhibitory rate of serum DPP-IV activity in mice) was greater than 70%. In addition, the half-life was 21.1 h in [2] and 4.09 h in [3].

As for `CS(=O)(=O)c1ccc2c(c1)CN([C@H]1CO[C@H](c3cc(F)ccc3F)[C@@H](N)C1)C2` [Example 4, (2R,3S,5R)-5-(5-methylsulfonylisoindolin-2-yl)-2-(2,5-difluorophenyl)tetrahydro-2H-pyran-3-amine], the IC50 was greater than 25 µM in data set [4] (substrate Midazolam, read-out: IC50 in inhibiting CYP Enzyme System 3A4_Mid); greater than 25 µM in [4] (substrate Testosterone, read-out: IC50 in inhibiting CYP Enzyme System 3A4_Tes); greater than 25 µM in [5]; greater than 25 µM in data set [6]; greater than 25 µM in [7]; greater than 25 µM in data set [8]. Also, the IC50 in data set [9] and in [11] was greater than 25 µM in each case. For the same molecule, the half-life is 8.26 h in data set [2], 17.1 h in [10] and 4.52 h in data set [3]. The molecule further returned an AUC(0-inf) in data set [10] of 45600 ng·h/mL. Also, the peak level in [10] (Cmax) was 4390 ng/mL. The Tmax in data set [10] worked out at 1.67 h.

Consider `N[C@H]1C[C@@H](N2Cc3ccc(S(=O)(=O)C4CC4)cc3C2)CO[C@@H]1c1cc(F)ccc1F` [Example 9, (2R,3S,5R)-5-(5-cyclopropylsulfonylisoindolin-2-yl)-2-(2,5-difluorophenyl) tetrahydro-2H-pyran-3-amine], for which, in data set [10], the AUC(0-inf) was found to be 52200 ng·h/mL, the Cmax is 5960 ng/mL, the Tmax is 2 h and the half-life was 32.5 h.

In general, IC50 refers to the point on the concentration scale where inhibition reaches its midpoint. What is called AUC(0-inf) is the area under the concentration-time curve extrapolated to infinity. Read a low AUC(0-inf) as low exposure. The term Cmax denotes the maximum level reached in the sampled fluid or tissue. Usually Tmax stands for the time from dosing to the highest level.
